From patent US8034928B2, “Fluorescence assays with improved sensitivity” (Wisconsin Alumni Research Foundation, priority 2003, dated 2011)

How the values were obtained:
[1] = Stability: generation of fluorescence in PBS, DMEM or water without trigger; type: physicochemical; conditions: DMEM and PBS, 5 μM, no cells
Procedure: The biological utility of pro-fluorophore 3 was then studied. To be useful, a latent fluorophore must remain non-fluorescent or have a small fluorescence in a biological environment. Accordingly, the accumulation of fluorescence in Dulbecco's modified Eagle's medium (DMEM) and phosphate-buffered saline (PBS) containing either fluorescein diacetate (which is a widely used pro-fluorophore) or 3 were studied.
A solution of pro-fluorophore 3 (5 μM) in 2 mL PBS was treated with PLE (0.5 μg), and the mixture was kept at room temperature for 4 h. The fluorescence excitation-emission spectra of the solution were recorded. The procedure was repeated for a solution of pro-fluorophore 3 treated in an identical manner, except for the addition of PLE.

HeLa cells = experiment: Fluorescence microscopy of HeLa cells incubated with pro-fluorophore in DMEM; type: cell-based; conditions: 10 μM, 2 h, 37° C., unwashed cells
Procedure: FIGS. 3B and C show unwashed HeLa cells incubated for 2 h with fluorescein diacetate (panel B; 10 μM) or 3 (panel C; 10 μM) at 37° C. in DMEM (5% CO2, 100% humidity). In FIG. 3C, the grey/white areas show the intensity of the fluorescence with the highest fluorescence shown as the lightest shade.
Fluorescence microscopy was used to determine the fate of fluorescein diacetate and pro-fluorophore 3 in DMEM containing HeLa cells.

## CC(=O)Oc1ccc2c(c1)Oc1cc(OC(C)=O)ccc1C21OC(=O)c2ccccc21 [fluorescein diacetate]
[1]
  accumulation of fluorescence in medium (stability): became fluorescent in minutes
HeLa cells
  fluorescence in HeLa cells: much greater in the medium than in HeLa cells
